Each structure is given as a SMILES string.

In one test the test system is WT Mtb Erdman strain. The test is described as follows: Microplate Alamar Blue Assay (MABA), Mtb growth inhibition. It is filed as cell-based, Mycobacterium tuberculosis. The conditions noted are these: Middlebrook 7H9 media, 7 days at 37° C. in 5% CO2.
One may read the IC50 as the concentration that gives 50% inhibition. A low value points to inhibition by little substance. `Cc1cc2c(N[C@@H]3C[C@H]3c3ccc(F)c(F)c3)nc(-c3ccc(=O)[nH]c3)nc2s1` [Example 490, 5-(4-(((1R,2S)-2-(3,4-difluorophenyl)cyclopropyl)amino)-6-methylthieno[2,3-d]pyrimidin-2-yl)pyridin-2(1H)-one] displayed an IC50 of more than 9100 nM.

The same test, now with this note: Mycobacterium tuberculosis, ERDMAN, 168 h, Middlebrook 7H9 media, 7 days at 37° C. in 5% CO2.
`Cc1cc2c(NCCCc3ccc(-c4ccc(Cl)cc4)cc3)nc(C(F)(F)F)nc2s1` [Example 282, N-(3-(4′-chloro-[1,1′-biphenyl]-4-yl)propyl)-6-methyl-2-(trifluoromethyl) thieno[2,3-d]pyrimidin-4-amine] returned an IC50 of 130 nM.
On the same count and under the same terms, with `Cc1cc2c(NCCCc3ccccc3)nc(C(=O)O)nc2s1` [Example 579, 6-methyl-4-((3-phenylpropyl)amino)thieno[2,3-d]pyrimidine-2-carboxylic acid] the figure was more than 10000 nM; with `Cc1cc2c(NCCCc3ccccc3)nc(CN(C)C)nc2s1` [Example 109, 2-((dimethylamino)methyl)-6-methyl-N-(3-phenylpropyl)thieno [2,3-d]pyrimidin-4-amine], more than 10000 nM; with `COC(=O)c1nc(NCCCc2ccccc2)c2cc(C)sc2n1` [Example 98, methyl 6-methyl-4-((3-phenylpropyl)amino) thieno[2,3-d]pyrimidine-2-carboxylate], more than 10000 nM.
Molecule `Cc1cc2c(NCCCc3ccc(-c4cnc(CO)cn4)cc3)nc(-c3ccoc3)nc2s1` [Example 403, (5-[4-(3-([2-(furan-3-yl)-6-methylthieno[2,3-d]pyrimidin-4-yl]amino)propyl)phenyl]pyrazin-2-yl)methanol] yielded an IC50 of 70 nM.
Turning to `Cc1cc2c(NCCCc3ccccc3)nc(-c3cnn(C)c3)nc2s1` [Example 133, 6-methyl-2-(1-methyl-1H-pyrazol-4-yl)-N-(3-phenylpropyl)thieno [2,3-d]pyrimidin-4-amine], it took 270 nM to reach half-maximal inhibition (IC50). Against the preceding molecule, the IC50 is about 3.9-fold higher.
For `Cc1cc2c(NCCCc3ccc(-c4ccc(OC(F)(F)F)cc4)cc3)nc(-c3ccc(OC(F)(F)F)cc3)nc2s1` [Example 285, 6-methyl-N-(3-(4′-(trifluoromethoxy)-[1,1′-biphenyl]-4-yl)propyl)-2-(4-(trifluoromethoxy)phenyl)thieno [2,3-d]pyrimidin-4-amine], the IC50 was more than 10000 nM.
Take `COC1CN(c2nc(NCCCc3ccccc3)c3cc(C)sc3n2)C1` [Example 518, 2-(3-methoxyazetidin-1-yl)-6-methyl-N-(3-phenylpropyl)thieno[2,3-d]pyrimidin-4-amine]: the concentration for half-maximal inhibition (IC50) stood at 1900 nM.
`Cc1cc2c(NCCCc3ccccc3)nc(-c3ncon3)nc2s1` [Example 143, 6-methyl-2-(1,2,4-oxadiazol-3-yl)-N-(3-phenylpropyl)thieno [2,3-d]pyrimidin-4-amine] gave a 50% inhibitory concentration (IC50) of 220 nM.
On the same count and under the same terms, with `COC(=O)c1ccc(CCCNc2nc(C(F)(F)F)nc3sc(C)cc23)cc1` [Example 246, methyl 4-(3-((6-methyl-2-(trifluoromethyl)thieno[2,3-d]pyrimidin-4-yl)amino)propyl) benzoate] the figure was more than 10000 nM; with `CCCCSc1nc(N[C@@H]2C[C@H]2c2ccc(F)c(F)c2)c2cc(C)sc2n1` [Example 87, 2-(butylthio)-N-((1R,2S)-2-(3,4-difluorophenyl)cyclopropyl)-6-methylthieno[2,3-d]pyrimidin-4-amine], 1500 nM; with `CCc1nc(NCCCCc2ccccc2)c2cc(C)sc2n1` [Example 25, 2-ethyl-6-methyl-N-(4-phenylbutyl)thieno [2,3-d]pyrimidin-4-amine], 120 nM.
`Cc1cc2c(NCCCc3ccc(-c4ccc(OC(F)(F)F)cc4)cc3)nc(-c3cn(C)cn3)nc2s1` [Example 443, 6-methyl-2-(1-methyl-1H-imidazol-4-yl)-N-(3-(4′-(trifluoromethoxy)-[1,1′-biphenyl]-4-yl)propyl)thieno[2,3-d]pyrimidin-4-amine] came in with a half-inhibitory concentration (IC50) of 300 nM.
As to `Cc1cc2c(NCCCc3ccc(-c4ccc(OC(F)(F)F)cc4)cc3)nc(-c3ncon3)nc2s1` [Example 446, 6-methyl-2-(1,2,4-oxadiazol-3-yl)-N-(3-(4′-(trifluoromethoxy)-[1,1′-biphenyl]-4-yl)propyl)thieno[2,3-d]pyrimidin-4-amine], the IC50 worked out at 96 nM.
On the same count and under the same terms, with `Cc1cc2c(NCCCc3ccc(-c4ccc(OC(F)(F)F)cc4)cc3)nc(-c3ccccn3)nc2s1` [Example 286, 6-methyl-2-(pyridin-2-yl)-N-(3-(4′-(trifluoromethoxy)-[1,1′-biphenyl]-4-yl)propyl)thieno [2,3-d]pyrimidin-4-amine] the figure was 130 nM; with `CCc1nc(N(C)CCCc2ccccc2)c2cc(C)sc2n1` [Example 17, 2-ethyl-N,6-dimethyl-N-(3-phenylpropyl)thieno [2,3-d]pyrimidin-4-amine], 7600 nM.
Molecule `FC(F)(F)Oc1ccc(-c2ccc(CCCNc3nc(-c4ccc[nH]4)nc4sccc34)cc2)cc1` [Example 574, 2-(1H-pyrrol-2-yl)-N-(3-(4′-(trifluoromethoxy)-[1,1′-biphenyl]-4-yl)propyl)thieno[2,3-d]pyrimidin-4-amine] came in with an IC50 of more than 520 nM.
`CCc1nc(NCCCc2cccc(N(C)C)c2)c2cc(C)sc2n1` [Example 253, N-(3-(3-(dimethylamino)phenyl)propyl)-2-ethyl-6-methylthieno[2,3-d]pyrimidin-4-amine] returned an IC50 of 1100 nM.
Still for that read-out and setting: with `Cc1cc2c(NCCCc3ccccc3)nc(NC3CC3)nc2s1` [Example 522, N2-cyclopropyl-6-methyl-N4-(3-phenylpropyl)thieno[2,3-d]pyrimidine-2,4-diamine] the figure was 4200 nM; with `Cc1cc2c(NCCCOc3ccc(Cl)cc3)nc(C(F)(F)F)nc2s1` [Example 72, N-(3-(4-chlorophenoxy)propyl)-6-methyl-2-(trifluoromethyl)thieno [2,3-d]pyrimidin-4-amine], 3900 nM; with `CCc1nc(NCCCc2ccc(C)cc2)c2cc(C)sc2n1` [Example 251, 2-ethyl-6-methyl-N-(3-(p-tolyl)propyl)thieno [2,3-d]pyrimidin-4-amine], 100 nM.
Consider `CCc1nc(NCCCc2ccc(-c3ccc(NS(C)(=O)=O)cc3)cc2)c2cc(C)sc2n1` [Example 277, N-(4′-(3-((2-ethyl-6-methylthieno[2,3-d]pyrimidin-4-yl)amino)propyl)-[1,1′-biphenyl]-4-yl)methanesul-fonamide], for which the IC50 came to 630 nM.
`CSCc1nc(NCCCc2ccccc2)c2cc(C)sc2n1` [Example 75, 6-methyl-2-((methylthio)methyl)-N-(3-phenylpropyl)thieno [2,3-d]pyrimidin-4-amine] displayed an IC50 of 2000 nM. This IC50 is about 3.2-fold higher than that of the molecule before.
For the molecule `Cc1cc2c(NCCCc3ccccc3)nc(N3CCCCC3)nc2s1` [Example 517, 6-methyl-N-(3-phenylpropyl)-2-(piperidin-1-yl)thieno[2,3-d]pyrimidin-4-amine], inhibition was half-maximal at 3100 nM (IC50).
For `CCc1nc(N[C@@H]2C[C@H]2c2ccccc2)c2cc(C)sc2n1` (racemic) [Example 1, 2-ethyl-6-methyl-N-((rac-1S,2R)-2-phenylcyclopropyl) thieno[2,3-d]pyrimidin-4-amine], the half-maximal inhibitory concentration (IC50) was 240 nM.
Still for that read-out and setting: with `Cc1cc2c(NCCCc3ccccc3C)nc(C(F)(F)F)nc2s1` [Example 247, 6-methyl-N-(3-(o-tolyl)propyl)-2-(trifluoromethyl) thieno[2,3-d] pyrimidin-4-amine] the figure was 1400 nM; with `Cc1cc2c(NCCCc3ccc(-c4cccc([N+](=O)[O-])c4)cc3)nc(-c3ccoc3)nc2s1` [Example 340, 2-(furan-3-yl)-6-methyl-N-(3-(3′-nitro-[1,1′-biphenyl]-4-yl)propyl)thieno [2,3-d]pyrimidin-4-amine], 25 nM.
As to `Cc1cc2c(N[C@@H]3C[C@H]3c3ccc(F)c(F)c3)nc(-c3ccccn3)nc2s1` [Example 33, N-((1R,2S)-2-(3,4-difluorophenyl)cyclopropyl)-6-methyl-2-(pyridin-2-yl)thieno[2,3-d]pyrimidin-4-amine], the IC50 worked out at 4300 nM.
Same read-out and setting: with `CCCc1ccc(CCCNc2nc(C(F)(F)F)nc3sc(C)cc23)cc1` [Example 236, 6-methyl-N-(3-(4-propylphenyl)propyl)-2-(trifluoromethyl) thieno [2,3-d]pyrimidin-4-amine] the figure was 1400 nM; with `CCc1nc(NCCCc2ccc(-c3ccccc3)cc2)c2cc(C)sc2n1` [Example 265, N-(3-([1,1′-biphenyl]-4-yl)propyl)-2-ethyl-6-methylthieno[2,3-d]pyrimidin-4-amine], 150 nM; with `Cc1cc2c(NCCn3cccc3)nc(C(F)(F)F)nc2s1` [Example 183, N-(2-(1H-pyrrol-1-yl)ethyl)-6-methyl-2-(trifluoromethyl) thieno[2,3-d]pyrimidin-4-amine], more than 10000 nM.
`Cc1cc2c(NCCCc3ccc(-c4ccc(OC(F)(F)F)cc4)cc3)nc(-c3cn[nH]c3)nc2s1` [Example 454, 6-methyl-2-(1H-pyrazol-4-yl)-N-(3-(4′-(trifluoromethoxy)-[1,1′-biphenyl]-4-yl)propyl)thieno[2,3-d]pyrimidin-4-amine] showed an IC50 of more than 1000 nM.
As to `CCc1nc(NCCCc2ccc(-n3ccnn3)cc2)c2cc(C)sc2n1` [Example 593, N-(3-(4-(1H-1,2,3-triazol-1-yl)phenyl)propyl)-2-ethyl-6-methylthieno[2,3-d]pyrimidin-4-amine], the IC50 was determined as 530 nM.
For `Cc1cc2c(N[C@@H]3C[C@H]3c3ccc(F)c(F)c3)nc(C3CCC3)nc2s1` [Example 115, 2-cyclobutyl-N-((1R,2S)-2-(3,4-difluorophenyl)cyclopropyl)-6-methylthieno[2,3-d]pyrimidin-4-amine], the half-maximal inhibitory concentration (IC50) was found to be 640 nM.
Still for that read-out and setting: with `Cc1nc2c(N[C@@H]3C[C@H]3c3ccc(F)c(F)c3)nc(-c3ccc(C(F)(F)F)cn3)nc2s1` [Example 144, N-((1R,2S)-2-(3,4-difluorophenyl)cyclopropyl)-2-methyl-5-(5-(trifluoromethyl)pyridin-2-yl)thiazolo[5,4-d]pyrimidin-7-amine] the figure was more than 10000 nM; with `Cc1cc2c(N[C@@H]3C[C@H]3c3ccc(F)c(F)c3)nc(-c3ccc(=O)[nH]c3)nc2s1` [Example 490, 5-(4-(((1R,2S)-2-(3,4-difluorophenyl)cyclopropyl)amino)-6-methylthieno[2,3-d]pyrimidin-2-yl)pyridin-2(1H)-one], 4700 nM.
Regarding `Cc1cc2c(NCCCc3cccnc3)nc(C(F)(F)F)nc2s1` [Example 158, 6-methyl-N-(3-(pyridin-3-yl)propyl)-2-(trifluoromethyl) thieno[2,3-d] pyrimidin-4-amine], the half-inhibitory concentration (IC50) was more than 6900 nM.
